Data published in patent US4278467A, “Substitutive additives for isopropyl alcohol in fountain solution for lithographic offset printing” (priority 1979, dated 1981).
In brackets after ≈: the same amount, converted by molar mass. Read-outs that look alike come from different tables or passages of the source. Each block holds one compound with its values, some of them ahead of it.

Tests used:
[1] = Solubility of selected materials in water, expressed in percent by weight at 20° C.; format: physicochemical
[2] = Solubility of water in the material, percent by weight at 20° C.; format: physicochemical; settings: water dissolved in the additive
[3] = Surface tension as measured by the duNouy tensiometer device; format: physicochemical
Description: In continuous dampening systems, the dampening solution has a surface tension of from about 40 to 50 dynes/cm or less as measured by the duNouy tensiometer device. Isopropyl alcohol has an undiluted surface tension of about 21 dynes/cm and isopropyl alcohol at about 10 to 30 percent by volume in water has a surface tension of between 40 to 50 dynes/cm. […] The point where the optimum ink-water balance control is obtained depends on a combination of complicated factors not yet precisely known. These factors include the design and speed of the press, design of the dampening system, the nature and amount of concentrates that are used in the dampening solution, the nature of the form being printed and the experience of the operator. A typical lower limit of effective use of isopropyl alcohol in continuous flow dampening systems is between about 10 to 15 percent by volume. This corresponds to surface tension values in the range of about 40 to 50 dyne/cm.

[4] = 20° C.; cited from earlier work
[5] = cited from earlier work
[6] = Solubility of the material in heptane; format: physicochemical; settings: 20° C.

solubility ([1]; water, read-out: Sol. in Water): 42 mg/mL (≈ 287 mM)
Sol. of Water in (material) [2]: 12 percent by weight
SMILES: CCCC(O)C(CC)CO (stereo not drawn) [2-ethyl-1,3-hexanediol]

surface tension ([3]; about 10 to 30 percent by volume in water): 40 to 50 dynes/cm
surface tension ([3]; lower limit of effective use, about 10 to 15 percent by volume): 40 to 50 dyne/cm
surface tension ([3]; undiluted): about 21 dynes/cm
SMILES: CC(C)O [isopropyl alcohol]
vapor pressure [4]: about 30 mm of Hg
heat of vaporization ([5]; at its boiling point of 82° C.): 164 callories/gm

Sol. in Water [1]: 1.0 percent by weight
Sol. of Water in (material) [2]: 19 percent by weight
Sol. in Heptane [6]: Complete
SMILES: CCCCCCOCCO [n-hexyl Cellosolve, n-hexoxyethylene glycol]

SMILES: O [water]
vapor pressure [4]: ~18 mm of Hg
heat of vaporization ([5]; at 100° C.): 540 calories/gm
